From patent US11534428B1, “Compositions and methods for delaying the incidence of labor” (ObsEva S.A., priority 2018, dated 2022)
“Also recorded” adds a separate entry of the source. Where two headings read alike, the source gives them in different places. Bridge positions count the residues as written; N and C are the ends. Square brackets hold non-standard residues; d marks the D form. Peptide text beside a SMILES is read from it. Orn = NCCC[C@H](N)C(=O)O; Mpa = O=C(O)CCS

Legend:
[1] = Part A: three-period crossover, single doses of compound (2) and MgSO4 alone and co-administered; conditions: for pharmacokinetic interaction between compound (2) and MgSO4: in vivo
Procedure: Both studies enrolled 12 healthy, non-pregnant women of reproductive age. […] During the MgSO4 study, women stayed in the clinic from Day −1 to Day 4 of each period. Safety and pharmacokinetics were assessed in accordance with European and United States clinical drug-interaction guidelines. Additional electrocardiogram and neurological examinations were performed assessing safety following MgSO4 administration.
One cohort of 12 subjects was admitted to the study unit on day −1, period 1. […] On day 1, subjects were crossed over and received the alternate treatment to that in period 1. Subjects were discharged on day 3, and after washout returned on day −1, period 3. […] Outpatient visits occurred on days 4 and 5 followed by a final visit 7 days (±1 day) later. Venous blood samples used in pharmacokinetic analyses were taken pre-dose then 0.25, 0.5, 0.75, 1, 1.5, 2, 3, 4, 6, 8, 12, 16 and 20 hours post dose on day 1 of each treatment period. Single samples for pharmacokinetic analysis were also drawn on days 2, 3, 4 and 5 of each treatment period.
(§1) Plasma samples used to determine drug concentration were analyzed by SGS (SGS CEPHAC, France) using a validated methods. Non-compartmental analysis was used to estimate pharmacokinetic parameters and pharmacokinetic modeling was used to access time-dependent pharmacokinetics. […] Other pharmacokinetic parameters were calculated according to standard equations.
Pharmacokinetic interaction assessments were performed on logarithmically transformed AUC0-24, AUC0-∞ and Cmax values using ANOVA models with fixed effects for sequence (Part A only), period, and treatment and a random term for subject within sequence.
(§2) Differences in tmax were explored by computing the Hodges-Lehmann estimate and the corresponding 90% CI according to Tukey using the approximate method. The Wilcoxon signed rank test was used to test differences in tmax. Unrecorded values were treated as missing.

[2] = Part B: single-sequence crossover, compound (2) at steady state co-administered with atosiban, nifedipine or betamethasone; conditions: for Tmax: female, human, in vivo, iv, 60.75 mg, time of peak plasma concentration
Procedure: (§3) Both studies enrolled 12 healthy, non-pregnant women of reproductive age. […] Safety and pharmacokinetics were assessed in accordance with European and United States clinical drug-interaction guidelines.
(§4) Once at steady state, compound (2) was sequentially co-administered with each of the other tocolytic drugs. Subjects were admitted to the study unit on day −1. On day 1, each subject received a single intravenous treatment course of atosiban. […] From days 4 to 9, oral doses of compound (2) (1,000 mg) were administered until reaching steady state. […] Two additional samples were taken at 24 and 48 hours post dose to determine betamethasone concentration, due to the longer half-life of this drug. Pharmacokinetic sampling also occurred before compound (2) administration on days 4, 5, 6, 7, 8 and 9, with an additional 0.25 hour post-dose sample taken on day 9 to determine concentration of compound (2) and its metabolite, compound (1). […] Pharmacokinetic samples were obtained at the times stated above on days 10, 11 and 12, and additional betamethasone samples were obtained 24 and 48 hours post-dose. Subjects were discharged on day 14 and returned for a follow-up visit on day 21.
as §1
(§5) Pharmacokinetic interaction assessments were performed on logarithmically transformed AUC0-24, AUC0-∞ and Cmax values using ANOVA models with fixed effects for sequence (Part A only), period, and treatment and a random term for subject within sequence. The 90% confidence intervals (90% CI) for the geometric mean ratio of AUC0-24, AUC0-∞ and Cmax were constructed, comparing treatments administered alone versus combination treatments.
as §2

[3] = in vivo
Procedure: as §3, §4, §1, §5, §2

[4] = clinical; conditions: female, human, in vivo
Procedure: as §3, §4, §1, §5, §2

[5] = target: T1, Pept1 transporter protein (Homo sapiens, UniProt P46059); assay: Pept1 transporter dependence of intestinal absorption; type: in vitro ADME
T1 sequence (P46059 1-708): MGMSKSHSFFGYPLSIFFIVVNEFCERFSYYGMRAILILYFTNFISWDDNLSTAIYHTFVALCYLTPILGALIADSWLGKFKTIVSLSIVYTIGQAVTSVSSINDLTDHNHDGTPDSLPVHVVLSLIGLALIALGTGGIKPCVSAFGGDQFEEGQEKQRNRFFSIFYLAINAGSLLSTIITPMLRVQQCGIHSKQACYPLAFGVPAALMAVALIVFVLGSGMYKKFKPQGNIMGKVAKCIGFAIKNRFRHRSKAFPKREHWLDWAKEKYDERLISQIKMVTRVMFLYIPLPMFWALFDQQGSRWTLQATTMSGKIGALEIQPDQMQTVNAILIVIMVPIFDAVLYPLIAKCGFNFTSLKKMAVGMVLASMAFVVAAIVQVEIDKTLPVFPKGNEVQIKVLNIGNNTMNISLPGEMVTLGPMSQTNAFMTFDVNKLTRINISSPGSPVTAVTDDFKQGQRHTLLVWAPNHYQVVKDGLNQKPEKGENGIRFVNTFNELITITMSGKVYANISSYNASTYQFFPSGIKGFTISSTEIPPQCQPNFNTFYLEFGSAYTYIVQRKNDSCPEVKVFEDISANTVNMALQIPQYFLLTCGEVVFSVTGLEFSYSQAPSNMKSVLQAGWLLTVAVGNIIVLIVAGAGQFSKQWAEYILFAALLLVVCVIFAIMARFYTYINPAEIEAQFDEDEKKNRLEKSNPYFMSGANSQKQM
From the text: Compound 2 is de-esterified by ambient esterases in the small intestine and subsequently penetrates the small intestinal epithelium passively. […] Pept1 is known to mediate the absorption of a variety of valinate esters, as described, for example, in Vig et al., Adv. Drug Deliv. Rev. […] Dispos. 41:608-614 (2013). […] Rather, compound 2 and salts thereof are converted in vivo to a form that is readily absorbed in a manner independent of energy and local proton gradient. This beneficial property, coupled with the high aqueous solubility of compound I and salts thereof, fosters a pharmacokinetic profile in which compound 2 and salts thereof readily dissolve in an aqueous environment and are in turn converted into a form capable of transported-independent absorption.

[6] = clinical drug-interaction study in healthy women, Parts A and B together (pharmacokinetics, safety, tolerability); type: in vivo, human; conditions: plasma, oral compound (2)
Procedure: Healthy women aged between 18 and 45 years with a body mass index of 18.0 to 30.0 kg/m^2 were included in these investigations. Subjects were screened 55 days before the first drug administration and had to be healthy according to medical history, physical examinations, blood pressure tests, electrocardiogram results and laboratory assessment of blood and urine.
This study was performed at Croydon University Hospital, Croydon, UK. The study protocol (EudraCT: 2016-001958-18) was reviewed and approved by a National Health Service (NHS) Research Ethics Committee (South Central-Berkshire B, UK) and the Medicines and Healthcare products Regulatory Authority (MHRA). The study was conducted according to the ethical principles enshrined in UK law, the Declaration of Helsinki and Good Clinical Practice guidelines. All subjects were informed of the purpose of the study and signed voluntary consent forms before being enrolled.
Other pharmacokinetic parameters were calculated according to standard equations.

[7] = relative to compound 1; cited from earlier work
[8] = crystal form stability and hygroscopicity; type: physicochemical
From the text: For example, this compound is readily crystallized using a several distinct experimental procedures. Compound 3 assumes a single, reproducible crystal form upon crystallization from a variety of media and under different ambient conditions. […] For instance, impurities associated with atmospheric water are not readily integrated into the crystalline form of compound 3.

[9] = co-administration with MgSO4 vs compound (2) alone
[10] = compound (2) with MgSO4 vs alone

## O=S(=O)([O-])[O-].[Mg+2] [MgSO4, magnesium sulfate, reference compound]
[1]; after co-administration of compound (2) and MgSO4 vs MgSO4 alone
  AUCs of total Mg: slightly lower
[1]
  pharmacokinetic interaction between compound (2) and MgSO4: no relevant mutual pharmacokinetic interactions
[1]; interaction analysis
  effect of compound (2) on timing or extent of total Mg exposure: no effects

## CCOc1ccc(C[C@H]2NC(=O)CCSSC[C@@H](C(=O)N3CCC[C@H]3C(=O)N[C@@H](CCCN)C(=O)NCC(N)=O)NC(=O)[C@H](CC(N)=O)NC(=O)[C@H]([C@@H](C)O)NC(=O)[C@H]([C@@H](C)CC)NC2=O)cc1 [atosiban] ([Mpa][dY](Et)ITNCP[Orn]G-NH2; disulfide 1-6)
[2]; descriptive
  Cmax and AUCs, co-administration with compound (2) vs drug alone: slightly higher
[2]; co-administered with compound (2), compound (2) 1,000 mg per day at steady state
  Tmax: 0.25 h
[2]; drug administered alone
  Tmax: 1.5 h
[2]; paired analysis
  tmax, with compound (2) vs drug alone: no significant tmax difference

## C[C@H]1C[C@H]2[C@@H]3CCC4=CC(=O)C=C[C@]4(C)[C@@]3(F)[C@@H](O)C[C@]2(C)[C@@]1(O)C(=O)CO [betamethasone, reference compound]
[3]
  Cmax and AUCs, co-administration with compound (2) vs drug alone: Slightly increased
  rise of plasma concentrations: increased more rapidly
  tmax, with compound (2) vs drug alone: significantly shorter

## O=C(N[C@@H](CCO)c1ccc(F)cc1)[C@@H]1SCCN1S(=O)(=O)c1ccc(-c2ccccc2)cc1 [compound (1), 3-([1,1′-biphenyl]-4-ylsulfonyl)-N-[1-(4-fluorophenyl)-3-hydroxypropyl]-1,3-thiazolidine-2-carboxamide]
[3]; female, human
  change in compound (1) AUC0-24: 15-24%
  change in compound (1) AUC (AUC0-24): −21%
  increase in compound (1) AUC: 15%
  increase in compound (1) Cmax: 35%
  increase in compound (1) MRT and t1/2: 1.7-2 fold
[3]; human
  PE, compound (1) AUC: 0.786
  PE, compound (1) Cmax: 0.719
  changes in compound (1) tmax: not significant
  compound (1) CL/F: decrease
  compound (1) tmax: increase
[4]
  Tmax: 3 h
[1]; [9]
  compound (1) AUC0-24: small decrease
  compound (1) AUC0-t or AUC0-∞: unchanged
[1]; [10]
  compound (1) tmax: slightly later; also recorded: no effect
  interaction estimates (linear mixed model): ~1
[1]; during MgSO4 infusion vs compound (2) alone
  compound (1) Cmax: lower
[1]
  pharmacokinetic interaction between compound (2) and MgSO4: no interaction of clinical significance
[1]; with vs without MgSO4 infusion
  compound (1) mean t1/2 and MRT: nearly identical

## CC(C)[C@H](N)C(=O)OCC[C@H](NC(=O)[C@@H]1SCCN1S(=O)(=O)c1ccc(-c2ccccc2)cc1)c1ccc(F)cc1 [compound (2), (3S)-3-({[(2S)-3-(biphenyl-4-ylsulfonyl)-1,3-thiazolidin-2-yl]carbonyl}-amino)-3-(4-fluorophenyl)propyl L-valinate]
[5]
  substrate for the Pept1 transporter protein: not substrates
[6]
  mean AUC0-∞ of compound (2), times lower than that of compound (1): 771-1163 times
  mean peak concentration of compound (2), times lower than that of compound (1): 133-246 times
[7]
  solubility in water and in FeSSIF and FaSSIF media: improvements
[1]
  pharmacokinetic interaction between compound (2) and MgSO4: no relevant mutual pharmacokinetic interactions

## CC(C)[C@H](N)C(=O)OCC[C@H](NC(=O)[C@@H]1SCCN1S(=O)(=O)c1ccc(-c2ccccc2)cc1)c1ccc(F)cc1.Cl [compound (3), (3S)-3-({[(2S)-3-(biphenyl-4-ylsulfonyl)-1,3-thiazolidin-2-yl]carbonyl}-amino)-3-(4-fluorophenyl)propyl L-valinate hydrochloride]
[8]
  hygroscopicity: low
[8]; ambient conditions and elevated relative humidity
  stability of the crystal form: extended stability

## COC(=O)C1=C(C)NC(C)=C(C(=O)OC)C1c1ccccc1[N+](=O)[O-] [nifedipine, reference compound]
[3]
  effect of compound (2) on exposure to the co-administered drug: marked increase
